{"source": "patent US11981677B2", "about": "“Further substituted triazolo quinoxaline derivatives” (Grünenthal GmbH, priority 2018, dated 2024)"}
{"biological_target": "T1, Glucocorticoid Receptor (Homo sapiens, UniProt P04150)", "T1 construct": "expressed in transfected cells", "T1 sequence (P04150 524-758 limits assumed)": "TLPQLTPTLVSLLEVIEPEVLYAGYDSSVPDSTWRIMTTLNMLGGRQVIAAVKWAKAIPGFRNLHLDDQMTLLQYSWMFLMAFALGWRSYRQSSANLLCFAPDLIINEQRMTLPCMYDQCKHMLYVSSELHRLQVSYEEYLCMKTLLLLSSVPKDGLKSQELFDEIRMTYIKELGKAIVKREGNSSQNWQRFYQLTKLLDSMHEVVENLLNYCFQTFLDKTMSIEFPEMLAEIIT", "assay": "Agonistic mode of action on the glucocorticoid receptor (CHO-Gal4/GR luciferase reporter cell line)", "assay_type": "cell-based", "settings": "CHO-Gal4/GR luciferase reporter cells; observed in the agonistic assay or the antagonistic assay (mode not given); read-out: IC50 or EC50 range", "procedure,_shortened": "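CHO cells stably expressing GAL4 DBD–GR ligand-binding domain fusion with GAL4-UAS firefly luciferase reporter, seeded 24 h, then treated in Opti-MEM with 8 half-log concentrations from 10 μM to 0.003 μM (0.5% DMSO), quadruplicate. Luminescence read on FLIPR after lysis with Triton/luciferin; EC50 calculated.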", "units": {"IC50 or EC50 (antagonist or agonist mode, not stated per compound)": "µM"}}
{"molecule": "COc1c(-c2cc(C)cc3c2ccn3S(C)(=O)=O)cc(F)c2c1-n1c(C)nnc1C(C)(C)N2", "note": "[Example 476, 6-Fluoro-9-methoxy-1,4,4-trimethyl-8-(6-methyl-1-methylsulfonyl-1H-indol-4-yl)-5H-[1,2,4]triazolo[4,3-a]quinoxaline]", "IC50 or EC50 (antagonist or agonist mode, not stated per compound)": "0.1 to 1"}
{"molecule": "Cc1c(-c2cc(C#N)cc3[nH]ccc23)cc(F)c2c1-n1c(C)nnc1C(C)(C)N2", "note": "[Example 477, 4-(6-Fluoro-1,4,4,9-tetramethyl-5H-[1,2,4]triazolo[4,3-a]quinoxalin-8-yl)-1H-indole-6-carbonitrile]", "IC50 or EC50 (antagonist or agonist mode, not stated per compound)": "0.1 to 1"}
{"molecule": "COc1c(-c2cc(F)cc3c(C4CC4)c[nH]c23)cc(F)c2c1-n1c(C)nnc1C(C)(C)N2", "note": "[Example 478, 8-(3-Cyclopropyl-5-fluoro-1H-indol-7-yl)-6-fluoro-9-methoxy-1,4,4-trimethyl-5H-[1,2,4]triazolo[4,3-a]quinoxaline]", "IC50 or EC50 (antagonist or agonist mode, not stated per compound)": "< 0.1"}
{"molecule": "CCS(=O)(=O)n1ccc2c(-c3cc(F)c4c(c3NC)-n3c(C)nnc3C(C)(C)N4)cc(F)cc21", "note": "[Example 479, [8-[1-(Ethylsulfonyl)-6-fluoro-1H-indol-4-yl]-6-fluoro-1,4,4-trimethyl-5H-[1,2,4]triazolo[4,3-a]quinoxalin-9-yl]-methyl-amine]", "IC50 or EC50 (antagonist or agonist mode, not stated per compound)": "0.1 to 1"}
{"molecule": "CNc1c(-c2cc(F)cc3c2ccn3CCO)cc(F)c2c1-n1c(C)nnc1C(C)(C)N2", "note": "[Example 480, 2-[6-Fluoro-4-(6-fluoro-1,4,4-trimethyl-9-methylamino-5H-[1,2,4]triazolo[4,3-a]quinoxalin-8-yl)-1H-indol-1-yl]-EtOH]", "IC50 or EC50 (antagonist or agonist mode, not stated per compound)": "0.1 to 1"}
{"molecule": "CNc1c(-c2cccc3c2ccn3C2CC2)cc(F)c2c1-n1c(C)nnc1C(C)(C)N2", "note": "[Example 481, 8-(1-cyclopropyl-1H-indol-4-yl)-6-fluoro-N,1,4,4-tetramethyl-4,5-dihydro-[1,2,4]triazolo[4,3-a]quinoxalin-9-amine]", "IC50 or EC50 (antagonist or agonist mode, not stated per compound)": "0.1 to 1"}
{"molecule": "COc1c(-c2cccc3c2ccn3S(C)(=O)=O)cc(Cl)c2c1-n1c(C)nnc1C(C)(C)N2", "note": "[Example 482, 6-Chloro-9-methoxy-1,4,4-trimethyl-8-(1-methylsulfonyl-1H-indol-4-yl)-5H-[1,2,4]triazolo[4,3-a]quinoxaline]", "IC50 or EC50 (antagonist or agonist mode, not stated per compound)": "0.1 to 1"}
{"molecule": "COc1c(-c2cc(F)cc3c2ccn3S(C)(=O)=O)cc(Cl)c2c1-n1c(C)nnc1C(C)(C)N2", "note": "[Example 483, 6-chloro-8-(6-fluoro-1-(methylsulfonyl)-1H-indol-4-yl)-9-methoxy-1,4,4-trimethyl-4,5-dihydro-[1,2,4]triazolo[4,3-a]quinoxaline]", "IC50 or EC50 (antagonist or agonist mode, not stated per compound)": "< 0.1"}
{"molecule": "Cc1c(-c2cccc3c2ccn3C)cc(F)c2c1-n1c(C)nnc1C(C)(C)N2", "note": "[Example 484, 6-Fluoro-1,4,4,9-tetramethyl-8-(1-methyl-1H-indol-4-yl)-5H-[1,2,4]triazolo[4,3-a]quinoxaline]", "IC50 or EC50 (antagonist or agonist mode, not stated per compound)": "< 0.1"}
{"molecule": "COc1c(-c2cccc3c2ccn3C)cc(F)c2c1-n1c(C)nnc1C(C)(C)N2", "note": "[Example 485, 6-Fluoro-9-methoxy-1,4,4-trimethyl-8-(1-methyl-1H-indol-4-yl)-5H-[1,2,4]triazolo[4,3-a]quinoxaline]", "IC50 or EC50 (antagonist or agonist mode, not stated per compound)": "0.1 to 1"}
{"molecule": "CNc1c(-c2cc(F)cc3c2ccn3S(C)(=O)=O)cc(F)c2c1-n1c(C)nnc1C(C)(C)N2", "note": "[Example 486, [6-Fluoro-8-(6-fluoro-1-methylsulfonyl-1H-indol-4-yl)-1,4,4-trimethyl-5H-[1,2,4]triazolo[4,3-a]quinoxalin-9-yl]-methyl-amine]", "IC50 or EC50 (antagonist or agonist mode, not stated per compound)": "0.1 to 1"}
{"molecule": "CNc1c(-c2cc(F)cc3c(C)c[nH]c23)cc(F)c2c1-n1c(C)nnc1C(C)(C)N2", "note": "[Example 487, [6-Fluoro-8-(5-fluoro-3-methyl-1H-indol-7-yl)-1,4,4-trimethyl-5H-[1,2,4]triazolo[4,3-a]quinoxalin-9-yl]-methyl-amine]", "IC50 or EC50 (antagonist or agonist mode, not stated per compound)": "< 0.1"}
{"molecule": "COc1c(-c2cc(F)cc3[nH]ccc23)cc(Cl)c2c1-n1c(C)nnc1C(C)(C)N2", "note": "[Example 488, 6-Chloro-8-(6-fluoro-1H-indol-4-yl)-9-methoxy-1,4,4-trimethyl-5H-[1,2,4]triazolo[4,3-a]quinoxaline]", "IC50 or EC50 (antagonist or agonist mode, not stated per compound)": "< 0.1"}
{"molecule": "COc1c(-c2ccc(F)c3[nH]ncc23)cc(F)c2c1-n1c(C)nnc1C(C)(C)N2", "note": "[Example 489, 6-Fluoro-8-(7-fluoro-1H-indazol-4-yl)-9-methoxy-1,4,4-trimethyl-5H-[1,2,4]triazolo[4,3-a]quinoxaline]", "IC50 or EC50 (antagonist or agonist mode, not stated per compound)": "0.1 to 1"}
{"molecule": "Cc1c(-c2ccc(F)c3[nH]ccc23)cc(F)c2c1-n1c(C)nnc1C(C)(C)N2", "note": "[Example 490, 6-fluoro-8-(7-fluoro-1H-indol-4-yl)-1,4,4,9-tetramethyl-4,5-dihydro-[1,2,4]triazolo[4,3-a]quinoxaline]", "IC50 or EC50 (antagonist or agonist mode, not stated per compound)": "0.1 to 1"}
{"molecule": "Cc1c(-c2cccc3c2ccn3S(=O)(=O)CC2CC2)cc(F)c2c1-n1c(C)nnc1C(C)(C)N2", "note": "[Example 491, 8-[1-(Cyclopropyl-methylsulfonyl)-1H-indol-4-yl]-6-fluoro-1,4,4,9-tetramethyl-5H-[1,2,4]triazolo[4,3-a]quinoxaline]", "IC50 or EC50 (antagonist or agonist mode, not stated per compound)": "< 0.1"}
{"molecule": "COc1c(-c2cc(C(F)(F)F)cc3c2ccn3S(C)(=O)=O)cc(F)c2c1-n1c(C)nnc1C(C)(C)N2", "note": "[Example 492, 6-Fluoro-9-methoxy-1,4,4-trimethyl-8-[1-methylsulfonyl-6-(trifluoromethyl)-1H-indol-4-yl]-5H-[1,2,4]triazolo[4,3-a]quinoxaline]", "IC50 or EC50 (antagonist or agonist mode, not stated per compound)": "0.1 to 1"}
{"molecule": "COc1c(-c2cc(F)cc3c2cnn3S(C)(=O)=O)cc(Cl)c2c1-n1c(C)nnc1C(C)(C)N2", "note": "[Example 493, 6-Chloro-8-(6-fluoro-1-methylsulfonyl-1H-indazol-4-yl)-9-methoxy-1,4,4-trimethyl-5H-[1,2,4]triazolo[4,3-a]quinoxaline]", "IC50 or EC50 (antagonist or agonist mode, not stated per compound)": "0.1 to 1"}
{"molecule": "COc1c(-c2ccc(F)c3[nH]ccc23)cc(F)c2c1-n1c(C)nnc1C(C)(C)N2", "note": "[Example 494, 6-Fluoro-8-(7-fluoro-1H-indol-4-yl)-9-methoxy-1,4,4-trimethyl-5H-[1,2,4]triazolo[4,3-a]quinoxaline]", "IC50 or EC50 (antagonist or agonist mode, not stated per compound)": "0.1 to 1"}
{"molecule": "COc1c(-c2cc(F)cc3[nH]ncc23)cc(F)c2c1-n1c(C)nnc1C(C)(C)N2", "note": "[Example 495, 6-Fluoro-8-(6-fluoro-1H-indazol-4-yl)-9-methoxy-1,4,4-trimethyl-5H-[1,2,4]triazolo[4,3-a]quinoxaline]", "IC50 or EC50 (antagonist or agonist mode, not stated per compound)": "0.1 to 1"}
{"molecule": "Cc1c(-c2cc(F)cc3[nH]ncc23)cc(F)c2c1-n1c(C)nnc1C(C)(C)N2", "note": "[Example 496, 6-Fluoro-8-(6-fluoro-1H-indazol-4-yl)-1,4,4,9-tetramethyl-5H-[1,2,4]triazolo[4,3-a]quinoxaline]", "IC50 or EC50 (antagonist or agonist mode, not stated per compound)": "0.1 to 1"}
{"molecule": "Cc1c(-c2cc(F)cc3c2ccn3S(=O)(=O)CC2CC2)cc(F)c2c1-n1c(C)nnc1C(C)(C)N2", "note": "[Example 497, 8-[1-(Cyclopropyl-methylsulfonyl)-6-fluoro-1H-indol-4-yl]-6-fluoro-1,4,4,9-tetramethyl-5H-[1,2,4]triazolo[4,3-a]quinoxaline]", "IC50 or EC50 (antagonist or agonist mode, not stated per compound)": "< 0.1"}
{"molecule": "COc1c(-c2cc(F)cc3c2ccn3S(C)(=O)=O)c(F)c(F)c2c1-n1c(C)nnc1C(C)(C)N2", "note": "[Example 498, 6,7-Difluoro-8-(6-fluoro-1-methylsulfonyl-1H-indol-4-yl)-9-methoxy-1,4,4-trimethyl-5H-[1,2,4]triazolo[4,3-a]quinoxaline]", "IC50 or EC50 (antagonist or agonist mode, not stated per compound)": "< 0.1"}
{"molecule": "COc1c(-c2cccc3c2ccn3S(C)(=O)=O)c(F)c(F)c2c1-n1c(C)nnc1C(C)(C)N2", "note": "[Example 499, 6,7-Difluoro-9-methoxy-1,4,4-trimethyl-8-(1-methylsulfonyl-1H-indol-4-yl)-5H-[1,2,4]triazolo[4,3-a]quinoxaline]", "IC50 or EC50 (antagonist or agonist mode, not stated per compound)": "0.1 to 1"}
{"molecule": "Cc1nnc2n1-c1c(c(F)c(F)c(-c3cccc4c3ccn4S(C)(=O)=O)c1C(F)(F)F)NC2(C)C", "note": "[Example 500, 6,7-difluoro-1,4,4-trimethyl-8-(1-(methylsulfonyl)-1H-indol-4-yl)-9-(trifluoromethyl)-4,5-dihydro-[1,2,4]triazolo[4,3-a]quinoxaline]", "IC50 or EC50 (antagonist or agonist mode, not stated per compound)": "0.1 to 1"}
{"molecule": "COc1c(-c2cc(F)cc3c2cnn3S(C)(=O)=O)c(F)c(F)c2c1-n1c(C)nnc1C(C)(C)N2", "note": "[Example 501, 6,7-Difluoro-8-(6-fluoro-1-methylsulfonyl-1H-indazol-4-yl)-9-methoxy-1,4,4-trimethyl-5H-[1,2,4]triazolo[4,3-a]quinoxaline]", "IC50 or EC50 (antagonist or agonist mode, not stated per compound)": "0.1 to 1"}
{"molecule": "Cc1c(-c2cccc3c2ccn3S(C)(=O)=O)c(F)c(Cl)c2c1-n1c(C)nnc1C(C)(C)N2", "note": "[Example 502, 6-Chloro-7-fluoro-1,4,4,9-tetramethyl-8-(1-methylsulfonyl-1H-indol-4-yl)-5H-[1,2,4]triazolo[4,3-a]quinoxaline]", "IC50 or EC50 (antagonist or agonist mode, not stated per compound)": "< 0.1"}
{"molecule": "Cc1c(-c2cc(F)cc3c2ccn3S(C)(=O)=O)c(F)c(Cl)c2c1-n1c(C)nnc1C(C)(C)N2", "note": "[Example 503, 6-Chloro-7-fluoro-8-(6-fluoro-1-methylsulfonyl-1H-indol-4-yl)-1,4,4,9-tetramethyl-5H-[1,2,4]triazolo[4,3-a]quinoxaline]", "IC50 or EC50 (antagonist or agonist mode, not stated per compound)": "1 to 15"}
{"molecule": "Cc1c(-c2cccc3[nH]ncc23)cc(F)c2c1-n1c(C)nnc1C(C)(C)N2", "note": "[Example 504, 6-Fluoro-8-(1H-indazol-4-yl)-1,4,4,9-tetramethyl-5H-[1,2,4]triazolo[4,3-a]quinoxaline]", "IC50 or EC50 (antagonist or agonist mode, not stated per compound)": "0.1 to 1"}
